From ChEMBL document CHEMBL3616398, “Recent advances on the synthesis of hepatitis C virus NS5B RNA-dependent RNA-polymerase inhibitors” (Eur J Med Chem, 2015) come the findings set out here.

Assay [1] deals with Hepatitis C virus. Description: Antiviral activity against HCV genotype 1b replicon system. The assay is classed as functional, organism-based, Hepacivirus hominis. In general terms: In antiviral work, replicon cells carry a viral genome segment that copies itself.
The test system of assay [2] is Hepatitis C virus. The assay can be described thus: Antiviral activity against HCV genotype 1b infected in human Ava.5 cells after 3 days assessed as protection from virus-induced cytotoxicity by MTT assay. The assay is classed as functional, organism-based, Hepacivirus hominis. The note with it: Ava5, 72 h. (In general: Tetrazolium dyes change colour on reduction, which living cells bring about.)

The nature of assay [3]: Inhibition of HCV genotype 1b NS5B RNA dependent RNA polymerase assessed as inorganic pyrophosphate generation by luminometry. Further details: species or system Hepatitis C virus subtype 1b.

Compound `Cc1nc2c(s1)CCCn1c-2c(C2CCCCC2)c2ccc(C(=O)O)cc21` registered an IC50 in the assay on Hepatitis C virus [1] of 8.3 µM.
Consider `O=C(NCCCc1ccccc1)c1nc2ccccc2c(=O)n1O`, for which, in the assay on Hepatitis C virus [2], the EC50 was 17.5 µM. In assay [3], the concentration for half-maximal inhibition (IC50) came to 8.77 µM.

Broadly, the IC50 is the concentration that inhibits the measured activity by half. A word on the EC50: it is the concentration that produces a half-maximal response.
